Measurements taken from paper PMC10254193, “Early Molecular Insights into Thanatin Analogues Binding to A. baumannii LptA” (Molecules, 2023).
Converted amounts (≈) assume the structure as drawn. Bridge positions count the residues as written; N and C are the ends. Square brackets hold non-standard residues; d marks the D form. Peptide text beside a SMILES is read from it. Hyp = O=C(O)[C@@H]1C[C@@H](O)CN1; Pen = CC(C)(S)[C@H](N)C(=O)O; dDab = NCC[C@@H](N)C(=O)O; Nle = CCCC[C@H](N)C(=O)O; Dab = NCC[C@H](N)C(=O)O

T1: A. baumannii LptAm2.0 (LptAm(Ab)2.0) (A. baumannii ATCC 17978, UniProt V5VEZ9 33-159)
T1 construct: LptA of A. baumannii ATCC 17978, L33 to G159: as LptAm(Ab)1.0 with a further 5-residue truncation at the C-terminus; source: E. coli BL21(DE3), purified (two-step NiNTA with TEV cleavage); not shown: GB1 (protein G B1 domain), N-terminal, cleaved; His tag, N-terminal, cleaved
T1 sequence: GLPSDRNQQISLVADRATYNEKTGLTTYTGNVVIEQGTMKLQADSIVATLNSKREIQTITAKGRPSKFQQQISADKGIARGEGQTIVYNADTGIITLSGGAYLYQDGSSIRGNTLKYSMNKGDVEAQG

B1: Thanatin (peptide)
peptide: GSKKPVPIIYCNRRTGKCQRM
notes: thanatin, the naturally occurring 21-mer; positions 1′-21′; also called native thanatin
B2: A. baumannii LptAm2.0 (LptAm(Ab)2.0) (domain or fragment)
chain: GLPSDRNQQISLVADRATYNEKTGLTTYTGNVVIEQGTMKLQADSIVATLNSKREIQTITAKGRPSKFQQQISADKGIARGEGQTIVYNADTGIITLSGGAYLYQDGSSIRGNTLKYSMNKGDVEAQG

Experiments:
E. coli ATCC 25922 = type: cell-based
Text: Table 1 LptA sequence identity to E. coli and MIC values (µg/mL). | column: E. coli ATCC 25922

K. pneumoniae ATCC 43816 = type: cell-based
Text: Table 1 LptA sequence identity to E. coli and MIC values (µg/mL). | column: K. pneumoniae ATCC 43816

P. aeruginosa ATCC 27853 = type: cell-based
Text: Table 1 LptA sequence identity to E. coli and MIC values (µg/mL). | column: P. aeruginosa ATCC 27853

A. baumannii DSM 30008 = type: cell-based
Text: Table 1 LptA sequence identity to E. coli and MIC values (µg/mL). | column: A. baumannii DSM 30008

LptAm(Ab)2.0 [1] = experiment: Fluorescence polarization competition (indirect) binding assay, displacement of than-FL; parameters: species or system A. baumannii; details: competition FP, than-FL 10 µM, triplicate; for IC50: 1:1 LptAm(Ab)2.0 and than-FL, FP buffer pH 7, overnight 4 °C, read at 25 °C, read-out: IC50 ± 95CI; for Ki: from IC50 and KD of than-FL by Cheng–Prusoff equation, read-out: KI ± 95CI
Protocol: The dissociation constant (KD) of than-FL was first determined in a direct binding assay and measured as 3.7 ± 0.5 µM (Figure 5, left) (Table 3). Subsequently, competitive binding assays were performed to determine the inhibition constants (KIs) of the unlabeled thanatin derivatives 1, 2, 5, 6, and 7. For each thanatin derivative tested, a serial dilution was prepared in triplicate on a single 96-well plate, to which a 1:1 mixture of LptAm(Ab)2.0 and than-FL was added. […] Determination of the KIs was achieved from the empirically derived IC50 values and KD of than-FL using the Cheng–Prusoff equation [27].
Protein stocks were purified and concentrated in SEC buffer (50 mM NaPi pH 7, 150 mM NaCl), and if necessary diluted to the desired concentration using FP buffer (50 mM NaPi pH 7, 150 mM NaCl, 0.05% Tween20). Peptide stocks and fluorescently labeled peptide stocks were made in FP buffer. A 1:1 serial dilution of 24 wells was prepared first by adding 100 µL of the unlabeled protein (e.g., LptAm(Ab)2.0) or peptide (e.g., 1, 2, 5–7), starting at high concentrations, 100–500 µM, in well one. Then, 50 µL was taken from the first well and added to 50 µL of FP buffer in the subsequent well, homogenized and repeated for the remaining of the 24-well series. Then, 50 µL of 2x stock of the fluorescently labeled thanatin (than-FL) was added to the dilution series. For the direct binding assays, 10 µM than-FL was used as the 2x stock, and for the indirect binding assays, a 1:1 mixture of 20 µM Lpt protein variant and 20 µM than-FL was used as the 2x stock; the final working concentrations of the than-FL were 5 µM and 10 µM, respectively. Plates were left to incubate overnight at 4 °C before fluorescence polarization (FP) measurements. Anisotropy was measured using the Tecan Safire^2 plate reader using a 10 nm bandwidth and setting the excitation and emission wavelengths to 635 nm and 670 nm, respectively. The G-factor (G) was also determined empirically as 1.094 for the instrument and included in all the anisotropy calculations.
For the indirect binding assays, r was calculated in the same manner as the direct binding assays. To control for non-specific binding between than-FL and competitors, than-FL alone was added to a replicate dilution series of the unlabeled peptide on the same plate. The control was subtracted from r to yield r’. Data were fit to a sigmoidal interpolation model on GraphPad Prism 9, and an IC50 was generated for each unlabeled peptide or protein measured. The inhibition constants (Kis) were calculated using the Cheng–Prusoff equation, Ki=IC50×1+LT/KD^−1 , in which the total concentration of than-FL (LT) was used as well as the KD previously derived from the peptide’s cognate direct binding assay.

LptAm(Ab)2.0 [2] = experiment: Fluorescence polarization direct binding assay; parameters: species or system A. baumannii; details: direct FP, than-FL 5 µM, LptAm(Ab)2.0 serial dilution, FP buffer 50 mM NaPi pH 7, 150 mM NaCl, 0.05% Tween20, overnight 4 °C, read at 25 °C, triplicate; read-out: KD ± 95CI
Text: As previously mentioned, a second A. baumannii LptA protein construct (LptAm(Ab)2.0), truncated at G159 of the C-terminus had improved monomeric behavior in solution and was used for binding affinity assays. The protein underwent routine checks for purity via a Coomassie-stained SDS-PAGE (Figure S1), and its binding to 7 in a titration series was observed using analytical SEC (Figure 2B), before proceeding with fluorescence polarization (FP). The fluorescent label, Alexa647, was conjugated to thanatin at the first position, as described in [24]. […]
Protein stocks were purified and concentrated in SEC buffer (50 mM NaPi pH 7, 150 mM NaCl), and if necessary diluted to the desired concentration using FP buffer (50 mM NaPi pH 7, 150 mM NaCl, 0.05% Tween20). […] Plates were left to incubate overnight at 4 °C before fluorescence polarization (FP) measurements. Anisotropy was measured using the Tecan Safire^2 plate reader using a 10 nm bandwidth and setting the excitation and emission wavelengths to 635 nm and 670 nm, respectively. The G-factor (G) was also determined empirically as 1.094 for the instrument and included in all the anisotropy calculations.
For direct binding assays, fluorescence anisotropy (r) was calculated using the parallel and perpendicular polarized intensities using the equation r=I∥−I⊥∗G/I∥+2I⊥∗G . […]

[3] = target: T1, A. baumannii LptAm2.0 (LptAm(Ab)2.0); experiment: fluorescence polarisation; competition: unlabeled peptide serially diluted, 1:1 mixture of LptAm(Ab)2.0 and than-FL added (than-FL 10 µM final); 50 mM NaPi pH 7, 150 mM NaCl, 0.05% Tween20; KI from IC50 by the Cheng-Prusoff equation; details: both partners purified
[4] = target: than-FL (fluorescently labeled thanatin, Alexa647); experiment: fluorescence polarisation; direct binding: LptAm(Ab)2.0 serially diluted, than-FL 5 µM; 50 mM NaPi pH 7, 150 mM NaCl, 0.05% Tween20; incubated overnight at 4 °C, executed at ambient temperature (25 °C); One site - Total fit

Row | Molecule | MIC (E. coli ATCC 25922) [µg/mL] | MIC (K. pneumoniae ATCC 43816) [µg/mL] | MIC (P. aeruginosa ATCC 27853) [µg/mL] | MIC (A. baumannii DSM 30008) [µg/mL] | IC50 (LptAm(Ab)2.0 [1]) [µM] | Ki (LptAm(Ab)2.0 [1]) [µM] | Kd (LptAm(Ab)2.0 [2]) [µM] | IC50 [3] [µM] | Ki [3] [µM] | Kd [4] [µM]
1 | CCCC[C@H](NC(=O)[C@H](CCCNC(=N)N)NC(=O)[C@H](CCN)NC(=O)[C@@H]1CSSC[C@H](NC(=O)[C@H](Cc2ccc(O)cc2)NC(=O)[C@@H](NC(=O)[C@@H](NC(=O)[C@@H]2CCCN2C(=O)[C@@H](NC(=O)[C@@H]2CCCN2C(=O)[C@H](CCCCN)NC(=O)[C@@H](N)CCCCN)C(C)C)[C@@H](C)CC)[C@@H](C)CC)C(=O)N[C@@H](CC(N)=O)C(=O)N[C@@H](CCCNC(=N)N)C(=O)N[C@@H](CCCNC(=N)N)C(=O)N[C@@H]([C@@H](C)O)C(=O)NCC(=O)N[C@@H](CCCCN)C(=O)N1)C(=O)O [Peptide 1] (H-KKPVPIIYCNRRTGKC[Dab]R[Nle]-OH; disulfide 9-16) | 0.063 (≈ 0.0281 µM) | 0.250 (≈ 0.111 µM) | >64 | >32 | – | – | – | – | – | –
2 | CC[C@H](C)[C@H](NC(=O)[C@@H](NC(=O)[C@@H]1CCCN1C(=O)[C@@H](NC(=O)[C@@H]1CCCN1C(=O)[C@H](CCCCN)NC(=O)[C@@H](N)CCCCN)C(C)C)[C@@H](C)CC)C(=O)N[C@@H](Cc1ccc(O)cc1)C(=O)N[C@@H]1C(=O)N[C@@H](CC(N)=O)C(=O)N[C@@H](CCCNC(=N)N)C(=O)N[C@@H](CCN)C(=O)N[C@@H]([C@@H](C)O)C(=O)N[C@H](CCN)C(=O)N[C@@H](CCCCN)C(=O)N[C@H](C(=O)N[C@@H](CCN)C(=O)N[C@@H](CCCNC(=N)N)C(=O)N[C@@H](Cc2ccc(O)cc2)C(=O)O)CSSC1(C)C [Peptide 2] (H-KKPVPIIY[Pen]NR[Dab]T[dDab]KC[Dab]RY-OH; disulfide 9-16; N-terminus and C-terminus assumed) | 0.031 (≈ 0.0134 µM) | 0.125 (≈ 0.0541 µM) | >32 | >32 | 24.1 ± 6.3 | 6.5 ± 1.7 | – | – | – | –
3 | CC[C@H](C)[C@H](NC(=O)[C@@H]1C[C@@H](O)CN1C(=O)[C@@H](N)C(C)C)C(=O)N[C@H](C(=O)N[C@@H](Cc1ccc(O)cc1)C(=O)N[C@@H]1C(=O)N[C@@H](CC(N)=O)C(=O)N[C@@H](CCCNC(=N)N)C(=O)N[C@@H](CCN)C(=O)N[C@@H]([C@@H](C)O)C(=O)N[C@H](CCN)C(=O)N[C@@H](CCCCN)C(=O)N[C@H](C(=O)N[C@@H](CCN)C(=O)N[C@@H](CCCNC(=N)N)C(=O)N[C@@H](Cc2ccc(O)cc2)C(=O)O)CSSC1(C)C)[C@@H](C)O [Peptide 6] (H-V[Hyp]ITY[Pen]NR[Dab]T[dDab]KC[Dab]RY-OH; disulfide 6-13; N-terminus and C-terminus assumed) | 0.125 (≈ 0.0638 µM) | 0.250 (≈ 0.128 µM) | >32 | >32 | 15.4 ± 1.3 | 4.1 ± 0.4 | – | – | – | –
4 | CC[C@H](C)[C@H](NC(=O)[C@@H](NC(=O)[C@@H]1C[C@@H](O)CN1C(=O)[C@@H](N)C(C)C)[C@@H](C)CC)C(=O)N[C@@H](Cc1ccc(O)cc1)C(=O)N[C@@H]1C(=O)N[C@@H](CC(N)=O)C(=O)N[C@@H](CCCNC(=N)N)C(=O)N[C@@H](CCN)C(=O)N[C@@H]([C@@H](C)O)C(=O)N[C@H](CCN)C(=O)N[C@@H](CCCCN)C(=O)N[C@H](C(=O)N[C@@H](CCN)C(=O)N[C@@H](CCN)C(=O)N[C@@H](Cc2ccc(O)cc2)C(=O)O)CSSC1(C)C [Peptide 5] (H-V[Hyp]IIY[Pen]NR[Dab]T[dDab]KC[Dab][Dab]Y-OH; disulfide 6-13; N-terminus and C-terminus assumed) | 0.063 (≈ 0.0329 µM) | 0.250 (≈ 0.131 µM) | >32 | >32 | 11.5 ± 0.7 | 3.1 ± 0.2 | – | – | – | –
5 | Than-FL: fluorescently labeled thanatin, Alexa647 conjugated at the first position; reporter in all FP assays | – | – | – | – | – | – | 3.7 ± 0.5 | – | – | –
6 | B1 | – | – | – | – | – | – | – | 11.8 | 3.2 | –
7 | B2 | – | – | – | – | – | – | – | – | – | 3.7
